{
  "source": "patent US7973219B2",
  "about": "“Method for producing transgenic plants resistant to weed control compounds which disrupt the porphyrin pathways of plants” (Sumitomo Chemical Company, Limited, priority 1998, dated 2011)",
  "system": "control recombinant tobacco",
  "experiment": "Leaf piece chlorophyll test, control recombinant tobacco",
  "format": "in vivo",
  "details": "control recombinant tobacco; for activity at 0.3 ppm: Nicotiana tabacum, read-out: Resistant level to test compound",
  "method": "Then, according to the method described in Manual for Gene Manipulation of Plant (by Hirofumi UCHIMIYA, Kodan-sha Scientific, 1992), the gene was introduced into tobacco. Agrobacterium strain bearing plasmid pBIBCH was cultured at 28° C. overnight in LB medium and then leaf pieces of tobacco cultured sterilely were dipped in the liquid culture medium. The leaf pieces were cultured at room temperature for 2 days in Murashige-Skoog medium (MS-medium, described in Murasige T. and Skoog F., Physiol. Plant. (1962) 15, p 473) containing 0.8% agar, 0.1 mg/liter naphthalene acetic acid and 1.0 mg/liter benzyl aminopurine. Then, the leaf pieces were washed with sterilized water and cultured for 7 days on MS medium containing 0.8% agar, 0.1 mg/liter naphthalene acetic acid, 1.0 mg/liter benzyl aminopurine and 500 μg/ml cefotaxime. The leaf pieces were transplanted onto MS medium containing 0.8% agar, 0.1 mg/liter naphthalene acetic acid, 1.0 mg/liter benzyl aminopurine, 500 μg/ml cefotaxime and 100 μg/ml kanamycin (hereinafter referred to as selective MS medium) and cultured on the medium continuously for 4months with transplanting the tobacco leaf pieces onto fresh selective MS medium every 1 month. During culture, stem-leaf differentiated shoots were appeared from the tobacco leaf pieces, these shoots were transplanted to MS medium containing 0.8% agar, 300 μg/ml cefotaxime and 50 μg/ml kanamycin to induce roots to obtain regenerated plants. The resultant regenerated plant was transplanted and cultured on MS medium 0.8% agar and 50 μg/ml kanamycin to obtain tobacco plant into which bchH gene was introduced. Similarly, tobacco leaf pieces were infected with Agrobacterium strain bearing pNO to obtain regenerated plant from the tobacco leaf pieces and tobacco plant (hereinafter referred to as control recombinant tobacco).\nThe tobacco leaves into which bchH gene was introduced and control recombinant tobacco leaves obtained in Example 5 were collected and each leaf was divided into the right and left equivalent pieces along the main vein, respectively. To one piece was applied an aqueous solution containing 0.3 ppm PPO inhibitory-type herbicidal compound of Structure 8, while, to the other piece was not applied the compound. These leaf pieces were placed on MS medium containing 0.8% agar and allowed to stand at room temperature for 7 days in light place. Then, each leaf piece was ground with pestle and mortar in 5 ml of 80% aqueous acetone solution to extract chlorophyll. The extract liquid was diluted with 80% aqueous acetone solution and the absorbance was measured at 750 nm, 663 nm and 645 nm to calculate total chlorophyll content according to the method described by Macknney G., J. Biol. Chem. (1941) 140, p 315. The results obtained from 4 clones of tobacco into which bchH gene was introduced (BCH1 to 4) and control recombinant tobacco is shown in Table 4. In the table, the resistant level to the herbicidal compound was represented by percentages of the total chlorophyll content of leaf pieces treated with herbicidal compound to that of untreated leaf pieces.\nThe tobacco clone into which bchH gene was introduced and control recombinant tobacco were also treated in the same manner with the solution containing PPO inhibitory-type herbicidal compound represented by the above Structure 3, 7, 10, 11, 13, 17, 23, 24, 25, 27, 28, 30 or 35, and the resistant level to each herbicidal compound was measured. In the table, the resistant levels to the herbicidal compound were represented by percentages of the total chlorophyll content of leaf pieces treated with the herbicidal compound to that of untreated leaf pieces.\nThe level of resistance to PPO inhibitory type herbicidal compound represented by Structure 8 was confirmed quantitatively by testing tobacco into which the gene encoding the variant soybean PPO prepared in Example 13 was introduced according to the same manner as in Example 6. […]",
  "note": "Like-named read-outs stand apart in the source and are kept apart here.",
  "data": [
    {"smiles": "C#CCOc1cc(N2C(=O)C3=C(CCCC3)C2=O)c(F)cc1Cl", "note": "[Structure 8]", "values": [
      {"measurement": "activity at 0.3 ppm", "setting": "168 h, 0.3 ppm, 7 days in light, chlorophyll of treated vs untreated leaf pieces, Table 4", "result": 7.63, "unit": "%"},
      {"measurement": "activity at 0.3 ppm", "setting": "same manner as Example 6 (0.3 ppm), treated vs untreated leaf pieces, Table 8", "result": 10, "unit": "%"},
      {"measurement": "activity at 0.3 ppm", "setting": "same manner as Example 6 (0.3 ppm), treated vs untreated leaf pieces, Table 10", "result": 18.4, "unit": "%"},
      {"measurement": "activity at 0.3 ppm", "setting": "same manner as Example 6 (0.3 ppm), treated vs untreated leaf pieces, Table 12", "result": 8.29, "unit": "%"},
      {"measurement": "Total chlorophyll content treated-leaf", "setting": "0.3 ppm, leaf pieces 7 days in light place, Table 4", "result": 0.19, "unit": "mg/g-fresh weight"},
      {"measurement": "resistant level", "setting": "2.0 ppm, 7 days in a light place, chlorophyll of treated vs untreated leaf pieces, Example 37", "result": 2.88, "unit": "%"},
      {"measurement": "Total chlorophyll content treated-leaf", "setting": "same manner as Example 6 (0.3 ppm, 7 days in light), Table 8", "result": 0.35, "unit": "mg/g-fresh weight"},
      {"measurement": "Total chlorophyll content treated-leaf", "setting": "same manner as Example 6 (0.3 ppm, 7 days in light), Table 10", "result": 0.42, "unit": "mg/g-fresh weight"},
      {"measurement": "Total chlorophyll content treated-leaf", "setting": "same manner as Example 6 (0.3 ppm, 7 days in light), Table 12", "result": 0.160, "unit": "mg/g-fresh weight"}
    ]}
  ]
}
